20 compounds from patent publication US7179818B2, “Substituted aminoquinuclidine compounds” (Ortho-McNeil Pharmaceutical, Inc., priority 2002, dated 2007) can be followed below.

The test system of series [1] is acetylcholine bromide-induced abdominal constriction response. As to the kind of experiment: Mouse acetylcholine bromide-induced abdominal constriction assay (MAIT). The following applies: 150 μmole/Kg p.o., acetylcholine bromide 5.5 mg/kg i.p. 30 min later. In kind it is in vivo. On the procedure:
The mouse acetylcholine-induced abdominal constriction assay, as described by Collier et al. in Brit. […] The test drugs or appropriate vehicles were administered orally (p.o.) and 30 min later the animal received an intraperitoneal (i.p.) injection of 5.5 mg/kg acetylcholine bromide (Matheson, Coleman and Bell, East Rutherford, N.J.). The mice were then placed in groups of three into glass bell jars and observed for a ten min observation period for the occurrence of an abdominal constriction response (defined as a wave of constriction and elongation passing caudally along the abdominal wall, accompanied by a twisting of the trunk and followed by extension of the hind limbs). For compounds of the present invention, the percent inhibition of this response to a nociceptive stimulus (equated to °/analgesia) was calculated as follows:
[formula] • CAR: Control Animal Responses • DTAR: Drug-Treated Animal Responses

The next series has as its target T1, μ-opioid receptor (Rattus norvegicus, UniProt P33535).
T1 construct: from tissue; host or cells: rat (Wistar) forebrain homogenate, particulate preparation
As to the kind of experiment: Rat brain μ-opioid receptor binding assay ([3H]DAMGO). On the procedure: Male, Wistar rats (150–250 g, VAF, Chades River, Kingston, N.Y.) are killed by cervical dislocation and their brains removed and placed immediately in ice cold Tris HCl buffer (50 mM, pH 7.4). The forebrains are separated from the remainder of the brain by a coronal transection, beginning dorsally at the colliculi and passing ventrally through the midbrain-pontine junction. After dissection, the forebrains are homogenized in Tris buffer in a Teflon®-glass homogenizer. The homogenate is diluted to a concentration of 1 g of forebrain tissue per 100 mL Tris buffer and centrifuged at 39,000×G for 10 min. The pellet is resuspended in the same volume of Tris buffer with several brief pulses from a Polytron homogenizer. This particulate preparation is used for the μ-opioid binding assays. […] The tubes and filters are rinsed three times with 4 mL of 10 mM HEPES (pH 7.4) and the radioactivity associated with the filter circles determined using Formula 989 scintillation fluid (New England Nuclear, Boston, Mass.) in a scintillation counter.
The data are used to calculate either the % inhibition compared to control binding (when only a single concentration of test compound is evaluated) or a Ki value (when a range of concentrations is tested).
% Inhibition is calculated as: […]
(§1) Ki value is calculated using the LIGAND (Munson, P. J. and Rodbard, D., Anal. Biochem. 107: 220–239, 1980) data analysis program.

The target of a further series is T2, δ-opioid receptor (Rattus norvegicus, UniProt P33533).
T2 construct: from tissue; host or cells: rat (Wistar) forebrain homogenate, particulate preparation
As to the kind of experiment: Rat brain δ-opioid receptor binding assay ([3H]DPDPE). The following applies: for δ-Opioid Receptor Binding, Inhibition at 1 μM: single concentration 1 μM. On the procedure: Male, Wistar rats (150–250 g, VAF, Charles River, Kingston, N.Y.) are killed by cervical dislocation, and their brains removed and placed immediately in ice cold Tris HCl buffer (50 mM, pH 7.4). The forebrains are separated from the remainder of the brain by a coronal transection, beginning dorsally at the colliculi and passing ventrally through the midbrain-pontine junction. After dissection, the forebrains are homogenized in Tris buffer in a Teflon®-glass homogenizer. The homogenate is diluted to a concentration of 1 g of forebrain tissue per 100 mL Tris buffer and centrifuged at 39,000×G for 10 min. The pellet is resuspended in the same volume of Tris buffer with several brief pulses from a Polytron homogenizer. This particulate preparation is used for the δ-opioid binding assays. Following incubation with the δ-selective peptide ligand [^3H]DPDPE at 25° C., the tube contents are filtered through Whatman GF/B filter sheets on a Brandel cell harvester. The tubes and filters are rinsed three times with 4 mL of 10 mM HEPES (pH 7.4), and the radioactivity associated with the filter circles determined using Formula 989 scintillation fluid (New England Nuclear, Boston, Mass.) in a scintillation counter.
The data are used to calculate either the % inhibition compared to control binding (when only a single concentration of test compound is evaluated) or a Ki value (when a range of concentrations are tested).
% Inhibition was calculated as: […]
as §1

[2] abbreviates: rat forebrain membranes, [3H]DAMGO, 25° C., read-out: μ-Opioid Receptor Binding Ki.
[3] abbreviates: rat forebrain membranes, [3H]DPDPE, 25° C., read-out: δ-Opioid Receptor Binding Ki.
The mark [4] stands for this setting: rat forebrain membranes, [3H]DPDPE.

Where a name gives a salt, the structure may show the parent alone. Read-outs that look alike come from different tables or passages of the source.

T2 sequence (P33533 whole entry): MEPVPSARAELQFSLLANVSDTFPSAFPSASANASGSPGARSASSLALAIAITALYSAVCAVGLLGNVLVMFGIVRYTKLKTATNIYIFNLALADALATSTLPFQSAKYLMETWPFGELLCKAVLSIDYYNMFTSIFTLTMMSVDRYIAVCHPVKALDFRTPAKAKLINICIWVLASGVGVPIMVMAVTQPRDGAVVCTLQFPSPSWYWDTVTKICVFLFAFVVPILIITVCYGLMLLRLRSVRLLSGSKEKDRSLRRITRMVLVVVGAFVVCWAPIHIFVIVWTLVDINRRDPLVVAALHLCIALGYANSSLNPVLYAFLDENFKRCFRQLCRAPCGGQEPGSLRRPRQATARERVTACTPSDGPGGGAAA
T1 sequence (P33535 whole entry): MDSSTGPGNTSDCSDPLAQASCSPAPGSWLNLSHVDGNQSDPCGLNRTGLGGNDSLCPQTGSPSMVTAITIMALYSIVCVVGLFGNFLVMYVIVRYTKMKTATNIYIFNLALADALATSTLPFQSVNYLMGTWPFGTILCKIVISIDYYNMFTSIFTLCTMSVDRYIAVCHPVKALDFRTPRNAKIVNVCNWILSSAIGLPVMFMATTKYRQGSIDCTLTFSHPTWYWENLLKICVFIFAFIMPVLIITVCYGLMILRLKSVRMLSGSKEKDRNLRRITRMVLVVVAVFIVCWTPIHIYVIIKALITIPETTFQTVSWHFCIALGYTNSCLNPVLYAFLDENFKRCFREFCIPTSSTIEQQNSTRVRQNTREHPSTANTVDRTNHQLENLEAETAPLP

As to `CCN(CC)C(=O)c1ccc(N(Cc2cccc(F)c2)C2CN3CCC2CC3)cc1` (centres unmarked) [Compound 19], the “MAIT % Inhibition” value in series [1] came to 18.2%. For the same compound, the Ki was 1120 nM on μ-opioid receptor and 5.5 nM on δ-opioid receptor. As to “N,N-Diethyl-4-[phenyl-(1-azabicyclo[2.2.2]octan-3-amino)]benzamide Fumarate [Compound 1, N,N-Diethyl-4-[phenyl-(1-azabicyclo[2.2.2]octan-3-amino)]benzamide Fumarate [1:1]]”, the “MAIT % Inhibition” value in series [1] turned out to be 55.6%. Compound `CCN(CC)C(=O)c1ccc(N(Cc2ccccc2F)C2CN3CCC2CC3)cc1` (centres unmarked) (as salt: fumarate) (hydrate or solvate) [Compound 18] yielded a melting point of 193 to 196 °C. Compound `CCN(CC)C(=O)c1ccc(N(Cc2cccc(Cl)c2)C2CN3CCC2CC3)cc1` (centres unmarked) (as salt: fumarate) [Compound 17] returned a melting point of 193 to 196 °C. `CCN(CC)C(=O)c1ccc(N(Cc2ccccc2)[C@@H]2CN3CCC2CC3)cc1` [Compound 21, (+)-(S)-N,N-Diethyl-4-[phenylmethyl-(1-azabicyclo[2.2.2]octan-3-amino)]benzamide Fumarate Hydrate [1:1.5:1]]: the “MAIT % Inhibition” value in series [1] worked out at 35.720%. Also, the inhibition constant Ki on μ-opioid receptor came to 2550 nM; on δ-opioid receptor, 20 nM.

For the compound `CCN(CC)C(=O)c1ccc(N(Cc2ccccc2F)C2CN3CCC2CC3)cc1` (centres unmarked) [Compound 18], in series [1], the “MAIT % Inhibition” value was 28.6%. For the same compound, the Ki is 1160 nM on μ-opioid receptor and 39 nM at δ-opioid receptor. In the case of “N,N-Diethyl-4-[phenyl-(1-azabicyclo[2.2.2]octan-3-amino)]-3-fluorobenzamide Fumarate [Compound 11, N,N-Diethyl-4-[phenyl-(1-azabicyclo[2.2.2]octan-3-amino)]-3-fluorobenzamide Fumarate [1:1]]”, the Ki came to 8330 nM at μ-opioid receptor (setting [2]) and 255 nM on δ-opioid receptor (setting [3]). For the compound “N-Morpholino-4-[phenyl-(1-azabicyclo[2.2.2]octan-3-amino)]benzamide Fumarate [Compound 15, N-Morpholino-4-[phenyl-(1-azabicyclo[2.2.2]octan-3-amino)]benzamide Fumarate [1:1]]”, the “δ-Opioid Receptor Binding, Inhibition at 1 μM” value at δ-opioid receptor (setting [4]) was under 50%.

For “N,N-Diethyl-4-[phenyl-(cis-2-methyl-1-azabicyclo[2.2.2]octan-3-amino)]benzamide [Compound 9]”, the “MAIT % Inhibition” value in series [1] amounted to 20%. For the compound “N,N-Diethyl-4-[(3-trifluoromethylphenyl)-(1-azabicyclo[2.2.2]octan-3-amino)]benzamide Hydrochloride [Compound 4, N,N-Diethyl-4-[(3-trifluoromethylphenyl)-(1-azabicyclo[2.2.2]octan-3-amino)]benzamide Hydrochloride [1:1]]”, the “δ-Opioid Receptor Binding, Inhibition at 1 μM” value on δ-opioid receptor (setting [4]) is under 50%.

As to `CCN(CC)C(=O)c1ccc(N(Cc2ccccc2)[C@H]2CN3CCC2CC3)cc1` [Compound 20, (−)-(R)-N,N-Diethyl-4-[phenylmethyl-(1-azabicyclo[2.2.2]octan-3-amino)]benzamide Fumarate Hydrate [1:1.5:1]], the “MAIT % Inhibition” value in series [1] was determined as 57.1%. For the same compound, the Ki was determined as 1240 nM on μ-opioid receptor and 11 nM at δ-opioid receptor. Take “N-pyrrolidinyl-4-[(4-methoxyphenyl)-(1-azabicyclo[2.2.2]octan-3-amino)]benzamide Fumarate [Compound 14, N-pyrrolidinyl-4-[(4-methoxyphenyl)-(1-azabicyclo[2.2.2]octan-3-amino)]benzamide Fumarate [1:1]]”: the “δ-Opioid Receptor Binding, Inhibition at 1 μM” value at δ-opioid receptor (setting [4]) was under 50%. For `CCN(CC)C(=O)c1ccc(N(Cc2cccc(Cl)c2)C2CN3CCC2CC3)cc1` (centres unmarked) [Compound 17], the “MAIT % Inhibition” value in series [1] was 16.7%. Further, the Ki is 914 nM at μ-opioid receptor and 21 nM at δ-opioid receptor. The compound `CCN(CC)C(=O)c1ccc(N(Cc2ccccc2)C2CN3CCC2CC3)cc1` (centres unmarked) (as salt: fumarate) (hydrate or solvate) [Compound 16, N,N-Diethyl-4-[phenylmethyl-(1-azabicyclo[2.2.2]octan-3-amino)]benzamide Fumarate Hydrate [1:1.5:1]] displayed a melting point of 107 to 110 °C. For “N,N-Diethyl-4-[(3,5-dichlorophenyl)-(1-azabicyclo[2.2.2]octan-3-amino)]benzamide Hydrochloride [Compound 7, N,N-Diethyl-4-[(3,5-dichlorophenyl)-(1-azabicyclo[2.2.2]octan-3-amino)]benzamide Hydrochloride [1:1]]”, the “δ-Opioid Receptor Binding, Inhibition at 1 μM” value at δ-opioid receptor (setting [4]) was under 50%.

“N,N-Diethyl-4-[(3-thiomethylphenyl)-(trans-2-methyl-1-azabicyclo[2.2.2]octan-3-amino)]benzamide Fumarate [Compound 10, N,N-Diethyl-4-[(3-thiomethylphenyl)-(trans-2-methyl-1-azabicyclo[2.2.2]octan-3-amino)]benzamide Fumarate [1:1.5]]”: the “MAIT % Inhibition” value in series [1] worked out at 25%.

On to “N,N-Diethyl-4-[phenyl-(1-azabicyclo[2.2.2]octan-3-amino)]-3-methylbenzamide Fumarate [Compound 12, N,N-Diethyl-4-[phenyl-(1-azabicyclo[2.2.2]octan-3-amino)]-3-methylbenzamide Fumarate [1:1]]”, for which the values for the Ki at μ-opioid receptor (setting [2]) and at δ-opioid receptor (setting [3]) were 10000 nM and 608 nM, respectively. As for `CCN(CC)C(=O)c1ccc(N(c2ccccc2)[C@H]2C3CCN(CC3)[C@@H]2C)cc1` [Compound 8, N,N-Diethyl-4-[phenyl-(trans-2-methyl-1-azabicyclo[2.2.2]octan-3-amino)]benzamide Fumarate Hydrate [1:1:0.5]], the figures for the inhibitory constant (Ki) on μ-opioid receptor (setting [2]) and on δ-opioid receptor (setting [3]) were 1340 nM and 26 nM, respectively. On to `CCN(CC)C(=O)c1ccc(N(Cc2ccccc2)C2CN3CCC2CC3)cc1` (centres unmarked) [Compound 16, N,N-Diethyl-4-[phenylmethyl-(1-azabicyclo[2.2.2]octan-3-amino)]benzamide Fumarate Hydrate [1:1.5:1]], for which, in series [1], the “MAIT % Inhibition” value was 50%. Further, the Ki on μ-opioid receptor amounted to 1920 nM; on δ-opioid receptor, 50 nM.

With “N,N-Diethyl-4-[phenyl-(1-azabicyclo[2.2.2]octan-3-amino)]-3-chlorobenzamide Fumarate [Compound 13, N,N-Diethyl-4-[phenyl-(1-azabicyclo[2.2.2]octan-3-amino)]-3-chlorobenzamide Fumarate [1:1]]”, on δ-opioid receptor (setting [3]), the Ki was 880 nM.
